Test results from patent publication US11559527B2 (priority 2017, dated 2023).

Legend:
[1] = test system: MCF7 cells; test: Mitochondrial mass quantification by flow cytometry (MitoTracker Deep Red); type: cell-based, Human; conditions: 50 μM, 5 days, relative to vehicle
From the text: In order to assess whether the inhibition of DRP1 was actually being translated into a reduction in mitochondrial fission, the inventors stained the mitochondria of MCF7 cells with Mitotracker Deep Red, which is a marker of mitochondrial mass. […] The original images are black background with shades of red over the cells, whereas the images in FIG. 3 have been color-inverted and generated in grey scale. Mitochondrial mass was also quantified by flow cytometry. FIGS. 4A-4C show results of mitochondrial mass quantification. In FIG. 4A, Mitotracker Deep Red mean intensity relative to vehicle intensity is shown for 2-day and 5-day treatments.
MITOCHONDRIAL MASS QUANTIFICATION: To measure mitochondrial mass, cells were stained with MitoTracker Deep Red (M22426, Invitrogen). Briefly, 2×10^5 […] cells per well were seeded in 6-well plates. […] Cells were then incubated for 15 min at 37° C. with the 10 nM Mitotracker Deep Red probe diluted in PBS (D8662, Sigma). All subsequent steps were performed in the dark. Cells were washed in PBS, harvested, and resuspended in PBS. Mitotracker signal was quantified as mean fluorescent intensity of the viable cell population in a Fortessa flow cytometer (BD Bioscience). Results were analyzed using FlowJo software.

[2] = test system: MCF7 cells; test: CD24/CD44 expression by FACS; type: cell-based, Human
Description: In human breast cancers, CSCs were first identified by the profile of expression of the cell surface marker CD24^−/CD44^+.
This is evident in FIGS. 10A and 10B.
(§1) The surviving fraction after 2 days and 5 days of growth was analyzed by FACS. MCF7 cells were either trypsinised or spun down and trypsinised and incubated with CD24 (IOTest CD24-PE, Beckman Coulter) and CD44 (APC mouse anti-human CD44, 559942, BD Pharmingen) for 15 minutes on ice. Cells were then rinsed twice in PBS, spun down, and resuspended with DAPI dye (D1306, Molecular probes) at 3 μM in PBS for 10 minutes. Samples were then analyzed by FACS (Fortessa, BD Bioscence). Only the live cell population, identified using the DAPI staining, was analyzed for CD24/CD44 expression. Data were analyzed using FlowJo software.

[3] = test system: TGFβ signaling; test: Luciferase reporter assay MCF7-GFP-SMAD(luc); type: cell-based, Human; conditions: 50 μM, 2 and 5 days
From the text: (§2) Mitochondrial fusion and fission may also have an impact in signaling pathways that regulate stem cell proliferation and survival. […] A range of reporter MCF7-GFP cell lines were generated, including MCF7-GFP-GLI(luc), MCF7-GFP-Rbp/Jk(luc), MCF7-GFP-SMAD(luc) and MCF7-GFP-TCF/LEF(luc), to assess Hedgehog signaling, Notch signaling, TGFβ signaling, and Wnt signaling, respectively. […] The data is shown in the four data plots in FIG. 9.
(§3) LUCIFERASE ASSAY: The Cignal Lenti reporter assay (luc) was used to monitor the activity of several signalling pathways in MCF7-GFP cells as explained previously. Luciferase Assay System (E1501, Promega) was performed according to manufacturer's instructions. 1×10^4 MCF7 […] were seeded in black-walled 96 well plates. When cells were attached, drug treatments were added for 18, 48 hours and 5 days. After treatment, Luciferase Assay was performed according to manufacturer's instructions and light signal was acquired in the Xenogen VivoVision IVIS Lumina. Results were normalized by SRB staining of cells grown in 96-well plates in parallel.
(§4) SULFORHODAMINE B (SRB) ASSAY: SRB (S9012, Sigma) measures total biomass by staining cellular proteins. […] Absorbance was spectrophotometrically measured at 562 nm in a FluoStar Omega plate reader (BMG Labtech). […]

[4] = test system: MCF7 cells; test: DAPI staining (viable cells in suspension; binucleated cells); type: cell-based, Human
Description: The second chart in FIG. 10B sets forth the results. […] One possible explanation to that observed behavior is that they are becoming more quiescent. […] Such phenomenon is typical of anti-mitotic drugs.
as §1

[5] = test system: Hedgehog signaling; test: Luciferase reporter assay MCF7-GFP-GLI(luc); type: cell-based, Human; conditions: 50 μM, 2 and 5 days
From the text: as §2, §3, §4

[6] = test system: A549 lung cancer cells; test: Tumorsphere formation assay, A549; type: cell-based
Description: One of the gold standard techniques for the study and identification of CSCs is the sphere formation assay, an in vitro culture system that enriches for CSCs. Under these anchorage-independent culture conditions, CSCs preferentially form the so-called tumorspheres, whereas more differentiated cells die rapidly.
TUMORSPHERE FORMATION ASSAY: A single cell suspension was prepared using enzymatic (1× Trypsin-EDTA, T3924, Sigma Aldrich), and manual disaggregation (25 gauge needle). […] After 5 days of culture in a humidified incubator at 37° C., tumorspheres bigger than 50 μm were counted using an eye piece graticule.

[7] = PrestoBlue viability assay; type: cell-based, Human; conditions: human, MCF7 breast cancer cells, read-out: reduction of MCF7 cell viability
Description: The inventors sought to evaluate whether mDIVI-1-induced inhibition of DRP1 has repercussion on the viability of MCF7 cells. […] Similar results were obtained using the Bradford assay, which measures protein content, as an indicator of cell viability.
CELL CULTURE: Human MCF7 breast cancer cells were purchased from ATCC and maintained in complete media: DMEM (D6546, Sigma) supplemented with 10% fetal bovine serum (F7524, Sigma), 100 units/ml of penicillin, 100 μg/ml, streptomycin (P0781, Sigma) and 1% Glutamax (#35050087, Life Technologies). For all experiments, cells were incubated in a 5% CO2 atmosphere at 37° C.
PRESTOBLUE VIABILITY ASSAY: Cell viability was measured using the resazurin-based PrestoBlue reagent (A-13261, ThermoFisher Scientific). Briefly, 5×10^3 MCF7 cells were seeded into 96-well black plates. When cells were attached mDIVI-1 or vehicle were added to the cells. After 2 or 5 days, PrestoBlue reagent was added to the cells and incubated for 2 hours. Plates were finally read using a FluoStar Omega plate reader (BMG Labtech) at an excitation wavelength of 544 and an emission wavelength of 590 nm. Background measurements were subtracted from all values.

COc1cc(-n2c(S)nc3ccccc3c2=O)c(Cl)cc1Cl [mDIVI-1, 3-(2,4-Dichloro-5-methoxyphenyl)-2-sulfanyl-4(3H)-quinazolinone]
Mitotracker Deep Red mean fluorescence intensity (mitochondrial mass) [1]: significantly higher
abundance of CD24−/CD44+ subpopulation ([2]; MCF7 grown as monolayers, 10 or 50 μM, vs vehicle): not reduced
amount of CD24−/CD44+ cells ([2]; MCF7 in suspension, dose-dependent): increased
TGFβ/SMAD pathway luciferase activity [3]: inhibition
binucleated cells (failure of cytokinesis) ([4]; 50 μM, data not shown): increase
cell viability (DAPI) vs vehicle-treated cells ([4]; anchorage-independent conditions): no significant differences
Hedgehog/GLI pathway luciferase activity [5]: inhibition
decrease of tumorsphere forming capacity ([6]; A549, 10 μM): > 15%
decrease of tumorsphere forming capacity ([6]; A549, 50 μM): > 80%
cytotoxicity at 5 days, 10 μM ([7]; 10 μM, five days): 20%
cytotoxicity at 48 h, 50 μM ([7]; 50 μM, 48 hours): 20%
cytotoxicity at 5 days, 50 μM ([7]; 50 μM, five days): > 65%
cytotoxicity at 48 h, 100 μM ([7]; 100 μM, 48 hours): 20%
cytotoxicity at 5 days, 100 μM ([7]; 100 μM, five days): 85%
